Reference: article PMC6275283, “Inhibitors of BMP‐1/tolloid‐like proteinases: efficacy, selectivity and cellular toxicity” (FEBS Open Bio, 2018)
Read-outs that look alike come from different tables or passages of the source.

Experiments:
Meprin β = target: T1, Meprin β (Homo sapiens, UniProt Q16820); assay: fluorogenic peptide cleavage assay; type: biochemical
T1 construct: gene MEP1B
T1 sequence (Q16820 62-652): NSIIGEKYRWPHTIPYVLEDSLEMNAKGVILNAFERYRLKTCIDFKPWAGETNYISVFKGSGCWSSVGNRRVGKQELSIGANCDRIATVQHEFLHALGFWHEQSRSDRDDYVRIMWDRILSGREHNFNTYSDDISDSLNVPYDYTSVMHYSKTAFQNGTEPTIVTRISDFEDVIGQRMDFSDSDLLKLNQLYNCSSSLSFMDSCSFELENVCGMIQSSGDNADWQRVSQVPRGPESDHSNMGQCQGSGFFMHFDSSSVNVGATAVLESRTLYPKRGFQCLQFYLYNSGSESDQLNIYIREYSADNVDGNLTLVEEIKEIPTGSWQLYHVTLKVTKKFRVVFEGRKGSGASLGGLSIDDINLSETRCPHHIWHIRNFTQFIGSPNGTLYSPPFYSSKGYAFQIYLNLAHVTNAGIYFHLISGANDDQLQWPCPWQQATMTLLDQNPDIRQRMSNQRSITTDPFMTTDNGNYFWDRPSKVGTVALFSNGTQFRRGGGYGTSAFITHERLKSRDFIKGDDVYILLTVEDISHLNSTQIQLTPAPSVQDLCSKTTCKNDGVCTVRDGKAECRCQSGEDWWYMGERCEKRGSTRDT
Text: fluorogenic peptide cleavage assay on Meprin β

Meprin α = target: T2, Meprin α (Homo sapiens, UniProt Q16819); assay: fluorogenic peptide cleavage assay; type: biochemical
T2 construct: gene MEP1A
T2 sequence (Q16819 66-712): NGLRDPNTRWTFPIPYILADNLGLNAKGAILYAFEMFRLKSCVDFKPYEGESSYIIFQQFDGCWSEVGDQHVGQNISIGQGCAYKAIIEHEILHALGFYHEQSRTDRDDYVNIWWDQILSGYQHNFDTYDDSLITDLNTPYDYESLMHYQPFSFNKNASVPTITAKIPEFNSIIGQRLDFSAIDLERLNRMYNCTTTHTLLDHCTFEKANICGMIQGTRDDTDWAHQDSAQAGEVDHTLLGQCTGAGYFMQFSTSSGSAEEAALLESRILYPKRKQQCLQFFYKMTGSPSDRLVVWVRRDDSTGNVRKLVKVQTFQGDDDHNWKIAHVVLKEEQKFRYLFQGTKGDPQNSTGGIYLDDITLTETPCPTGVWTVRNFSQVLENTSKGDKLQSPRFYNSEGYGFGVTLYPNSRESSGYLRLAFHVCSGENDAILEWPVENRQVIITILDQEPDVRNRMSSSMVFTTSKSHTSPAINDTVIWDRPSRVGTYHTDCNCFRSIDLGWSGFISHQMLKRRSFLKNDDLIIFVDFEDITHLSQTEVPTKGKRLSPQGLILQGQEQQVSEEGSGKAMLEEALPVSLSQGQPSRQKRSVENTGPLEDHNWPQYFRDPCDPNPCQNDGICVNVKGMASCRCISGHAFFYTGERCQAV
Text: fluorogenic peptide cleavage assay on Meprin α

[1] = […] Mca-YVADAPK-Dnp, […] enzyme, […] HEPES pH […] NaCl, […] CaCl2, […] °C

Molecule	IC50 (Meprin β; [1]) [nM]	IC50 (Meprin α; [1]) [nM]	IC50 (Meprin β) [nM]	IC50 (Meprin α) [nM]
FG‐2575	> 10000	> 1000		
COc1ccc(CCN(CCC(=O)NO)S(=O)(=O)c2ccc(NC(=O)NCCc3ccccc3)cc2)cc1 [S33A]			> 10000	393 ± 82
CCCCC[C@H](CC(=O)NO)C(=O)N[C@H](C(=O)N1CCC[C@H]1CO)C(C)C [Actinonin]			744 ± 29	55 ± 11
CNC(=O)[C@H](Cc1c[nH]c2ccccc12)NC(=O)[C@@H](CC(=O)NO)CC(C)C [GM6001]			> 10000	185 ± 12
